Test results as given in ChEMBL document CHEMBL1201862, “PubChem BioAssay data set” (2004).
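Assay format: 96-well plates, 48-hour exposure. GI50: concentration for 50% inhibition of growth.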 The source made the active and inactive calls. No stated cut-off is given here; in the data, active = GI50 up to about 1.1 µM and inactive = higher.

Key:
Experiment in all cases: NCI-60 cell line screen, 48 h
[1] = system: UO-31
[2] = system: EKVX
[3] = system: HT-29
[4] = system: SW-620
[5] = system: IGROV-1
[6] = system: KM12
[7] = system: SF-295
[8] = system: SF-268
[9] = system: HOP-62
[10] = system: COLO 205
[11] = system: OVCAR-3
[12] = system: MDA-N
[13] = system: A549
[14] = system: NCI-H460
[15] = system: SK-MEL-2
[16] = system: PC-3
[17] = system: SNB-75
[18] = system: SNB-19
[19] = system: UACC-62
[20] = system: A498

Compound | GI50 [1] | GI50 [2] | GI50 [3] | GI50 [4] | GI50 [5] | GI50 [6] | GI50 [7] | GI50 [8] | GI50 [9] | GI50 [10] | GI50 [11] | GI50 [12] | GI50 [13] | GI50 [14] | GI50 [15] | GI50 [16] | GI50 [17] | GI50 [18] | GI50 [19] | GI50 [20]
CCOC(=O)c1cc2cc(C)cc(C(=O)c3ccc([N+](=O)[O-])cc3)c2[nH]1 | > 100 µM (inactive) | > 100 µM (inactive) | > 100 µM (inactive) | > 100 µM (inactive) | > 100 µM (inactive) | > 100 µM (inactive) | > 100 µM (inactive) | > 100 µM (inactive) | 33.4 µM (inactive) | > 100 µM (inactive) | > 100 µM (inactive) | > 100 µM (inactive) | > 100 µM (inactive) | > 100 µM (inactive) | > 100 µM (inactive) | > 100 µM (inactive) | 51.6 µM (inactive) | > 100 µM (inactive) | > 100 µM (inactive) | > 100 µM (inactive)
C/C(=N/NC(=S)Nc1ccccc1Cl)c1ccccn1 | 0.583 µM (active) | 0.098 µM (active) | < 0.01 µM (active) | < 0.0168 µM (active) | < 0.0137 µM (active) | 0.0705 µM (active) | 0.0986 µM (active) | 0.0843 µM (active) | < 0.0415 µM (active) | < 0.0162 µM (active) | 0.0136 µM (active) | 0.452 µM (active) | 0.0582 µM (active) | 0.0382 µM (active) | 1.98 µM (inactive) | < 0.0143 µM (active) | 8.73 µM (inactive) | 1.79 µM (inactive) | 0.173 µM (active) | 1.46 µM (inactive)
O=C1Oc2ccccc2C1C/C(=N\Nc1ccccc1)c1ccccc1O (stereo not given) | 23.3 µM (inactive) | 26.5 µM (inactive) | 28.4 µM (inactive) | 29.9 µM (inactive) | 17 µM (inactive) | 7.46 µM (inactive) | 33.7 µM (inactive) | 25.7 µM (inactive) | 53.3 µM (inactive) | 15 µM (inactive) | 32.8 µM (inactive) | 44.5 µM (inactive) | 50 µM (inactive) | 34.4 µM (inactive) | 35.5 µM (inactive) | 30.2 µM (inactive) | 56.8 µM (inactive) | > 100 µM (inactive) | 33.9 µM (inactive) | 33.7 µM (inactive)
CCCN(CCCCC(NC(C)=O)C(=O)NCc1ccccc1)C(=O)N(CCCl)N=O (stereo not given) | 84.1 µM (inactive) | > 100 µM (inactive) | > 96.6 µM (inactive) | > 97.1 µM (inactive) | > 92.3 µM (inactive) | > 100 µM (inactive) | 20.9 µM (inactive) | 9.46 µM (inactive) | 25.5 µM (inactive) | > 90.2 µM (inactive) | > 100 µM (inactive) | > 100 µM (inactive) | 32.3 µM (inactive) | 10.1 µM (inactive) | > 100 µM (inactive) | 32.8 µM (inactive) | 27.1 µM (inactive) | 31.9 µM (inactive) | 11.7 µM (inactive) | > 86.9 µM (inactive)
O=C(CC1(O)C(=O)Nc2c(Cl)cc(Cl)cc21)c1ccc(Br)cc1Br (stereo not given) | 16 µM (inactive) | 19 µM (inactive) | 17.7 µM (inactive) | 3.3 µM (inactive) | 16.6 µM (inactive) | 12.9 µM (inactive) | 20 µM (inactive) | 8.17 µM (inactive) | 20.8 µM (inactive) | 7.21 µM (inactive) | 18.7 µM (inactive) | 7.57 µM (inactive) | 22.2 µM (inactive) | 16 µM (inactive) | 15.2 µM (inactive) | 16.9 µM (inactive) | 18.1 µM (inactive) | 17.2 µM (inactive) | 12.9 µM (inactive) | 22.1 µM (inactive)
CNCC(SC)c1ccc(O)c(O)c1 (stereo not given) | 43 µM (inactive) | 15.8 µM (inactive) | 30.7 µM (inactive) | 19.4 µM (inactive) | 34.3 µM (inactive) | > 100 µM (inactive) | > 100 µM (inactive) | 38.1 µM (inactive) | 36.4 µM (inactive) | 17.1 µM (inactive) | 14.1 µM (inactive) | 18.5 µM (inactive) | > 100 µM (inactive) | 16.7 µM (inactive) | > 100 µM (inactive) | 69.2 µM (inactive) | 28.8 µM (inactive) | > 100 µM (inactive) | 41.6 µM (inactive) | > 100 µM (inactive)
CC(O)CN1c2ccccc2Sc2ccc(Cl)cc21 (stereo not given) | > 10 µM (inactive) | > 10 µM (inactive) | > 10 µM (inactive) | > 10 µM (inactive) | > 10 µM (inactive) | > 10 µM (inactive) | > 10 µM (inactive) | > 10 µM (inactive) | > 10 µM (inactive) | > 10 µM (inactive) | > 10 µM (inactive) | > 10 µM (inactive) | > 10 µM (inactive) | > 10 µM (inactive) | > 10 µM (inactive) | > 10 µM (inactive) | > 10 µM (inactive) | > 10 µM (inactive) | > 10 µM (inactive) | > 10 µM (inactive)
COc1c(OC/C=C(\C)CCC=C(C)C)ccc2ccc(=O)oc12 [COLLININ] | > 100 µM (inactive) | 83.9 µM (inactive) | 94.4 µM (inactive) | > 100 µM (inactive) | > 100 µM (inactive) | 43.6 µM (inactive) | > 100 µM (inactive) | 96.8 µM (inactive) | > 100 µM (inactive) | > 100 µM (inactive) | > 100 µM (inactive) | > 100 µM (inactive) | > 100 µM (inactive) | > 10 µM (inactive) | > 100 µM (inactive) | 24.2 µM (inactive) | > 100 µM (inactive) | 65.2 µM (inactive) | 94.2 µM (inactive) | > 100 µM (inactive)
CC(=O)OCC1OC(NC(=S)Nn2c(=O)[nH]c3ccccc3c2=O)C(OC(C)=O)C(OC(C)=O)C1OC(C)=O (stereo not given) | > 100 µM (inactive) | > 100 µM (inactive) | > 100 µM (inactive) | > 100 µM (inactive) | > 100 µM (inactive) | > 100 µM (inactive) | > 100 µM (inactive) | > 100 µM (inactive) | > 100 µM (inactive) | > 100 µM (inactive) | > 100 µM (inactive) | > 100 µM (inactive) | > 100 µM (inactive) | > 100 µM (inactive) | > 100 µM (inactive) | > 100 µM (inactive) | > 100 µM (inactive) | > 100 µM (inactive) | > 100 µM (inactive) | > 100 µM (inactive)
